How the values were obtained:
Assay type in all cases: in vivo
[1] = system: ragweed (common ragweed, Ambrosia elatior); test: Test A postemergence; settings: postemergence, 0 to 100 scale (0 no effect, 100 complete control)
Summary of the method: (§1)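 Preemergence soil spray on seeded pots or post-emergence spray on 1–2 leaf plants, in loam–sand blend. Greenhouse ~10 d. Visual rating 0–100 against untreated plants.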

[2] = system: pigweed (Amaranthus retroflexus); test: Test A postemergence; settings: postemergence, 0 to 100 scale (0 no effect, 100 complete control)
Summary of the method: as §1

[3] = system: blackgrass (Alopecurus myosuroides); test: Test A postemergence; settings: postemergence, 0 to 100 scale (0 no effect, 100 complete control)
Summary of the method: as §1

corn (Zea mays) = test: Test A postemergence; settings: postemergence, 0 to 100 scale (0 no effect, 100 complete control)
Summary of the method: as §1

[4] = system: Galium (catchweed bedstraw, Galium aparine); test: Test A postemergence; settings: postemergence, 0 to 100 scale (0 no effect, 100 complete control)
Summary of the method: as §1

[5] = system: barnyardgrass (Echinochloa crus-galli); test: Test A postemergence; settings: postemergence, 0 to 100 scale (0 no effect, 100 complete control)
Summary of the method: as §1

[6] = system: giant foxtail (Setaria faberii); test: Test A postemergence; settings: postemergence, 0 to 100 scale (0 no effect, 100 complete control)
Summary of the method: as §1

Kochia (Kochia scoparia) [7] = test: Test A postemergence; settings: postemergence, 0 to 100 scale (0 no effect, 100 complete control)
Summary of the method: as §1

[8] = system: wheat (Triticum aestivum); test: Test A postemergence; settings: postemergence, 0 to 100 scale (0 no effect, 100 complete control)
Summary of the method: as §1

[9] = system: ryegrass, Italian (Italian ryegrass, Lolium multiflorum); test: Test A postemergence; settings: postemergence, 0 to 100 scale (0 no effect, 100 complete control)
Summary of the method: as §1

[10] = system: ducksalad (Heteranthera limosa); test: Test B flooded paddy test; settings: Flood, 250 g ai/ha; 0 to 100 scale where 0 is no effect and 100 is complete control; 13 to 15 d
Summary of the method: (§2)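 Response scored visually against untreated controls, 0 = no effect and 100 = complete control, 13–15 d after treatment in the greenhouse. Compounds added to paddy water held 3 cm above soil surface. Treatment given at 2-leaf stage.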

[11] = system: barnyardgrass (Echinochloa crus-galli); test: Test B flooded paddy test; settings: Flood, 250 g ai/ha; 0 to 100 scale where 0 is no effect and 100 is complete control; 13 to 15 d
Summary of the method: as §2

rice (Oryra sativa) = test: Test B flooded paddy test; settings: Flood, 250 g ai/ha; 0 to 100 scale where 0 is no effect and 100 is complete control; 13 to 15 d
Summary of the method: as §2

[12] = system: sedge, umbrella (small-flower umbrella sedge, Cyperus difformis); test: Test B flooded paddy test; settings: Flood, 250 g ai/ha; 0 to 100 scale where 0 is no effect and 100 is complete control; 13 to 15 d
Summary of the method: as §2

rice (Oryza sativa) = test: Test C flooded paddy test; settings: Flood; for Plant response rating (scale of 0 to 100), Rice: 0 is no effect, 100 is complete control
Text: (§3) Plant species in the flooded paddy test consisted of rice (Oryza sativa), sedge, umbrella (small-flower umbrella sedge, Cyperus difformis), ducksalad (Heteranthera limosa), and barnyardgrass (Echinochloa crus-galli) grown to the 2-leaf stage for testing. At time of treatment, test pots were flooded to 3 cm above the soil surface, treated by application of test compounds directly to the paddy water, and then maintained at that water depth for the duration of the test. Treated plants and controls were maintained in a greenhouse for 13 to 15 d, after which time all species were compared to controls and visually evaluated. Plant response ratings, summarized in Table C, are based on a scale of 0 to 100 where 0 is no effect and 100 is complete control. A dash (-) response means no test result.

[13] = system: ducksalad (Heteranthera limosa); test: Test C flooded paddy test; settings: Flood; for Plant response rating (scale of 0 to 100), Ducksalad: 0 is no effect, 100 is complete control
Text: as §3

[14] = system: barnyardgrass (Echinochloa crus-galli); test: Test C flooded paddy test; settings: Flood; for Plant response rating (scale of 0 to 100), Barnyardgrass: 0 is no effect, 100 is complete control
Text: as §3

[15] = system: sedge, umbrella (small-flower umbrella sedge, Cyperus difformis); test: Test C flooded paddy test; settings: Flood; for Plant response rating (scale of 0 to 100), Sedge, Umbrella: 0 is no effect, 100 is complete control
Text: as §3

[16] = system: ragweed (common ragweed, Ambrosia elatior); test: Test A preemergence
Summary of the method: as §1

[17] = system: pigweed (Amaranthus retroflexus); test: Test A preemergence
[18] = system: barnyardgrass (Echinochloa crus-galli); test: Test A preemergence
Summary of the method: as §1

[19] = system: giant foxtail (Setaria faberii); test: Test A preemergence
Summary of the method: as §1

Kochia (Kochia scoparia) [20] = test: Test A preemergence
Summary of the method: as §1

[21] = system: ryegrass, Italian (Italian ryegrass, Lolium multiflorum); test: Test A preemergence
Summary of the method: as §1

[22] = 125 g ai/ha, visual rating after approx. 10 d
[23] = 500 g ai/ha, visual injury, approx. 10 d
[24] = 31 g ai/ha, scale 0 to 100 (0 no effect, 100 complete control), 13 to 15 d
[25] = 125 g ai/ha, Preemergence, visual injury after approximately 10 d, 0 to 100 scale where 0 is no effect and 100 is complete control
[26] = 500 g ai/ha, preemergence, 0 to 100 scale, 0 = no effect, 100 = complete control

CN1CC(c2cc(F)cc(F)c2)C(C(=O)Nc2ccccc2F)C1=O (stereo not shown) [Compound 643]
Plant response rating, Ragweed [1, 22]: 0
Plant response rating, Ragweed [1, 23]: 30
Plant response rating, Pigweed [2, 22]: 0
Plant response rating, Pigweed [2, 23]: 0
Plant response rating, Blackgrass [3, 22]: 50
Plant response rating, Blackgrass [3, 23]: 60
Plant response rating, Corn (corn (Zea mays); [22]): 0
Plant response rating, Corn (corn (Zea mays); [23]): 70
Plant response rating, Galium [4, 22]: 0
Plant response rating, Galium [4, 23]: 50
Plant response rating, Barnyardgrass [5, 22]: 90
Plant response rating, Barnyardgrass [5, 23]: 90
Plant response rating, Foxtail, Giant [6, 22]: 90
Plant response rating, Foxtail, Giant [6, 23]: 90
Plant response rating, Kochia (Kochia (Kochia scoparia) [7]; [22]): 0
Plant response rating, Kochia (Kochia (Kochia scoparia) [7]; [23]): 20
Plant response rating, Wheat [8, 22]: 0
Plant response rating, Wheat [8, 23]: 50
Plant response rating, Ryegrass, Italian [9, 22]: 30
Plant response rating, Ryegrass, Italian [9, 23]: 30
Plant response rating, Ducksalad [10]: 100
Plant response rating, Barnyardgrass [11]: 80
Plant response rating, Rice (rice (Oryra sativa)): 15
Plant response rating, Sedge, Umbrella [12]: 0
Plant response rating, Rice (rice (Oryza sativa); [24]): 0
Plant response rating (scale of 0 to 100), Rice (rice (Oryza sativa); 62 g ai/ha): 0
Plant response rating (scale of 0 to 100), Rice (rice (Oryza sativa); 125 g ai/ha): 0
Plant response rating (scale of 0 to 100), Rice (rice (Oryza sativa); 250 g ai/ha): 10
Plant response rating, Ducksalad [13, 24]: 20
Plant response rating (scale of 0 to 100), Ducksalad ([13]; 62 g ai/ha): 50
Plant response rating (scale of 0 to 100), Ducksalad ([13]; 125 g ai/ha): 75
Plant response rating (scale of 0 to 100), Ducksalad ([13]; 250 g ai/ha): 100
Plant response rating, Barnyardgrass [14, 24]: 0
Plant response rating (scale of 0 to 100), Barnyardgrass ([14]; 62 g ai/ha): 35
Plant response rating (scale of 0 to 100), Barnyardgrass ([14]; 125 g ai/ha): 65
Plant response rating (scale of 0 to 100), Barnyardgrass ([14]; 250 g ai/ha): 90
Plant response rating, Sedge, Umbrella [15, 24]: 0
Plant response rating (scale of 0 to 100), Sedge, Umbrella ([15]; 62 g ai/ha): 0
Plant response rating (scale of 0 to 100), Sedge, Umbrella ([15]; 125 g ai/ha): 0
Plant response rating (scale of 0 to 100), Sedge, Umbrella ([15]; 250 g ai/ha): 0
Plant response rating, Ragweed [16, 25]: 0
Plant response rating, Ragweed [16, 26]: 20
Plant response rating, Pigweed [17, 25]: 0
Plant response rating, Pigweed [17, 26]: 20
Plant response rating, Barnyardgrass [18, 25]: 90
Plant response rating, Barnyardgrass [18, 26]: 90
Plant response rating, Foxtail, Giant [19, 25]: 100
Plant response rating, Foxtail, Giant [19, 26]: 100
Plant response rating, Kochia (Kochia (Kochia scoparia) [20]; [25]): 0
Plant response rating, Kochia (Kochia (Kochia scoparia) [20]; [26]): 40
Plant response rating, Ryegrass, Italian [21, 25]: 20
Plant response rating, Ryegrass, Italian [21, 26]: 90
